Measured values: ChEMBL document CHEMBL4190243, “Natural alkaloids as P-gp inhibitors for multidrug resistance reversal in cancer” (Eur J Med Chem, 2017)
pIC50, pKi: −log10 of the molar value. One block for each molecule: values may come before it.

Columns and labels:
[1] = organism: Homo sapiens; assay: Inhibition of P-gp in human Caco2 cells assessed as reduction in digoxin efflux at 4 uM relative to control; assay type: cell-based
[2] = target: MRP2 (ABCC2) (Homo sapiens, UniProt Q92887); assay: Inhibition of MRP2 in human Caco2 cells assessed as reduction in pravastatin sodium efflux at 4 uM relative to control; assay type: cell-based; conditions: Caco-2 cells, probe pravastatin sodium
[3] = test system: KB-V1; assay: Downregulation of P-gp expression in human MDR KBV1 cells after 24 hrs relative to control; assay type: functional
[4] = target: T1, ATP-dependent translocase ABCB1 (Homo sapiens, UniProt P08183); assay: Inhibition of human MDR1 ATPase activity expressed in baculovirus infected insect cells preincubated for 30 mins followed by ATP addition measured after 20 mins by colorimetric method
[5] = target: T1, ATP-dependent translocase ABCB1; assay: Inhibition of [125I]IAAP labeling to human MDR1 expressed in baculovirus infected insect cell membranes by electrophoresis method
[6] = target: T1, ATP-dependent translocase ABCB1; assay: Displacement of 8-azido[alpha-32P]ATP from human MDR1 expressed in baculovirus infected insect cell membranes by phosphorimaging method
[7] = target: T2, Broad substrate specificity ATP-binding cassette transporter ABCG2 (Homo sapiens, UniProt Q9UNQ0); assay: Inhibition of BCRP (unknown origin)
T2 sequence (Q9UNQ0 whole entry): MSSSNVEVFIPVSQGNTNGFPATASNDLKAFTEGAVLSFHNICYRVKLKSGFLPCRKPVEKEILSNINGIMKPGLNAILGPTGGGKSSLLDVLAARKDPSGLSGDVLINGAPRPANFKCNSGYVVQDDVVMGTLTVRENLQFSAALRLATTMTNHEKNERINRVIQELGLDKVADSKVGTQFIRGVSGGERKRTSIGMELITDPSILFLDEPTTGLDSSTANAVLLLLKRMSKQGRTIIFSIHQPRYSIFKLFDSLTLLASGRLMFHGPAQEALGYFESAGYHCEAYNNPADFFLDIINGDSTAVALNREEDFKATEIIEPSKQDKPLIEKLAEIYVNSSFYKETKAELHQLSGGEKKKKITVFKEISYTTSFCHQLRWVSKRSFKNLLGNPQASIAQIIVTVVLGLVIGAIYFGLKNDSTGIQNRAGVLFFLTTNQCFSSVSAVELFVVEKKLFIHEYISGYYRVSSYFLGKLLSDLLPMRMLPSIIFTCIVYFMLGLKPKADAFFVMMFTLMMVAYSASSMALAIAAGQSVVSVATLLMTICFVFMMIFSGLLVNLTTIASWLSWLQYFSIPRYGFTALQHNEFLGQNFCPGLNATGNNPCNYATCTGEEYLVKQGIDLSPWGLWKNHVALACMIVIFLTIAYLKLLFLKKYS

[8] = Inhibition of [125I]IAAP labeling to human P-gp expressed in baculovirus infected insect cell membranes after 10 mins
[9] = Inhibition of P-gp in human MCF7/DX1 cells assessed as doxorubicin accumulation after 30 to 40 mins by FACS analysis; assay type: cell-based
[10] = Inhibition of P-gp in human MCF7/DX1 cells assessed as […] Rh123 accumulation after 30 to 40 mins by FACS analysis; assay type: cell-based
[11] = Inhibition of P-gp in human MCF7/DX1 cells assessed as [3H]daunomycin accumulation after 40 mins by liquid scintillation counting method; assay type: cell-based
[12] = Inhibition of P-gp in human MCF7/DX1 cells assessed as BODIPY-FL-verapamil accumulation after 30 to 40 mins by FACS analysis; assay type: cell-based
[13] = Potentiation of doxorubicin-induced antitumor activity against human KBv200 cells xenografted in Balb/c nude mouse assessed as tumor growth inhibition at 10 mg/kg, ip once daily for 12 days (reference value: 11.6%); assay type: functional; conditions: 288 h, read-out: TGI
[14] = Terminal phase half life in healthy human at 30 mg/kg, iv by LC-MS/MS method; assay type: ADME, organism-based; conditions: in vivo, read-out: beta t1/2 (converted)
[15] = Cmax in male Sprague-Dawley rat at 50 mg/kg, po by LC-MS/MS method; assay type: ADME, organism-based; parameters: dose 50 mg/kg, route oral; conditions: in vivo
[16] = Potentiation of epirubicin-induced antitumor activity against human KBv200 cells in xenograft model assessed as tumor growth inhibition at 10 mg/kg, ip (reference value: 29%); assay type: functional; conditions: read-out: TGI
[17] = test system: Rattus norvegicus; assay: AUC (0 to 72 hrs) in male Sprague-Dawley rat at 50 mg/kg, po by LC-MS/MS method; assay type: ADME, organism-based; parameters: dose 50 mg/kg, time < 72 hr, route oral; conditions: in vivo
[18] = test system: Homo sapiens; assay: AUC in healthy human at 30 mg/kg, iv by LC-MS/MS method; assay type: ADME, organism-based; conditions: in vivo
[19] = test system: Rattus norvegicus; assay: AUC (0 to 72 hrs) in female Sprague-Dawley rat at 50 mg/kg, po by LC-MS/MS method; assay type: ADME, organism-based; parameters: time < 72 hr, dose 50 mg/kg, route oral; conditions: in vivo
[20] = Primary phase half life in healthy human at 30 mg/kg, iv by LC-MS/MS method; assay type: ADME, organism-based; conditions: in vivo, read-out: alphat1/2
[21] = Tmax in female Sprague-Dawley rat at 50 mg/kg, po by LC-MS/MS method; assay type: ADME, organism-based; conditions: in vivo
[22] = Half life in male Sprague-Dawley rat at 50 mg/kg, po by LC-MS/MS method; assay type: ADME, organism-based; conditions: in vivo
[23] = Half life in female Sprague-Dawley rat at 50 mg/kg, po by LC-MS/MS method; assay type: ADME, organism-based; conditions: in vivo
[24] = Tmax in male Sprague-Dawley rat at 50 mg/kg, po by LC-MS/MS method; assay type: ADME, organism-based; conditions: in vivo
[25] = Cmax in female Sprague-Dawley rat at 50 mg/kg, po by LC-MS/MS method; assay type: ADME, organism-based; parameters: dose 50 mg/kg, route oral; conditions: in vivo
[26] = Cytotoxicity against human KBv200 cells after 72 hrs by MTT assay; assay type: functional, cell-based; conditions: KBv200, 72 h
[27] = organism: Homo sapiens; assay: Inhibition of P-gp in human MCF7/DOX cells assessed as potentiation of doxorubicin-induced cytotoxicity by measuring fold reduction in doxorubicin IC50 at 5 uM; assay type: cell-based
[28] = Half life in rat at 50 mg/kg, po by LC-MS/MS method; assay type: ADME, organism-based; conditions: in vivo
[29] = Half life in patient with advanced stage of cancer at 500 mg/m2 by HPLC method; assay type: ADME, organism-based; conditions: human, in vivo
[30] = test system: NCI/ADR-RES; assay: Potentiation of doxorubicin-induced antitumor activity against human MCF7/ADR cells xenografted in nude mouse assessed as tumor growth inhibition at 30 mg/kg, ip every two days (reference value: -20%); assay type: functional; conditions: 48 h, read-out: TGI
[31] = Potentiation of vincristine-induced antitumor activity against human KBv200 cells xenografted in Balb/c nude mouse assessed as tumor growth inhibition at 30 mg/kg, ip every two days (reference value: 20%); assay type: functional; conditions: 48 h, read-out: TGI
[32] = Potentiation of paclitaxel-induced antitumor activity against human KBv200 cells in xenograft model assessed as tumor growth inhibition at 35 mg/kg, ip (reference value: 13%); assay type: functional; conditions: read-out: TGI
[33] = organism: Homo sapiens; assay: Inhibition of P-gp in human MCF7/DOX cells assessed as potentiation of doxorubicin-induced cytotoxicity by measuring fold reduction in doxorubicin IC50 at 2.5 uM; assay type: cell-based
[34] = Tmax in rat at 50 mg/kg, po by LC-MS/MS method; assay type: ADME, organism-based; conditions: in vivo
[35] = Cmax in rat at 50 mg/kg, po by LC-MS/MS method; assay type: ADME, organism-based; parameters: dose 50 mg/kg, route oral; conditions: in vivo
[36] = test system: Rattus norvegicus; assay: AUC (0 to 72 hrs) in rat at 50 mg/kg, po by LC-MS/MS method; assay type: ADME, organism-based; parameters: time < 72 hr, dose 50 mg/kg, route oral; conditions: in vivo
[37] = Displacement of [3H]vinblastine from P-gp in human KBV1 cell membrane vesicles; assay type: cell membranes
[38] = test system: KB-V1; assay: Potentiation of vinblastine-induced antitumor activity against human KBV1 cells xenografted in Ncr nude mouse assessed as growth inhibition at 0.136 mmol/kg by hallow fiber assay; assay type: functional; conditions: read-out: GI
[39] = test system: KB-V1; assay: Potentiation of vinblastine-induced antitumor activity against human KBV1 cells xenografted in Ncr nude mouse assessed as growth inhibition at 0.13 mmol/kg by hallow fiber assay; assay type: functional; conditions: read-out: GI
[40] = Potentiation of vinblastine-induced antitumor activity against human KB-8-5 cells xenografted in Ncr nude mouse assessed as growth inhibition at 0.13 mmol/kg by hallow fiber assay; assay type: functional; conditions: read-out: GI
[41] = Inhibition of P-gp ATPase activity in rat AS30-D/COL10 cell plasma membrane vesicles
[42] = Inhibition of P-gp in rat AS30-D/COL10 cell plasma membrane vesicles assessed as reduction in [3H]VBL transport
[43] = test system: P388; assay: Potentiation of doxorubicin-induced antitumor activity against mouse P388/DOX25 cells implanted in mouse assessed as increase in mouse survival at 1.6 mg/kg, ip; assay type: functional

T1 sequence (P08183 whole entry): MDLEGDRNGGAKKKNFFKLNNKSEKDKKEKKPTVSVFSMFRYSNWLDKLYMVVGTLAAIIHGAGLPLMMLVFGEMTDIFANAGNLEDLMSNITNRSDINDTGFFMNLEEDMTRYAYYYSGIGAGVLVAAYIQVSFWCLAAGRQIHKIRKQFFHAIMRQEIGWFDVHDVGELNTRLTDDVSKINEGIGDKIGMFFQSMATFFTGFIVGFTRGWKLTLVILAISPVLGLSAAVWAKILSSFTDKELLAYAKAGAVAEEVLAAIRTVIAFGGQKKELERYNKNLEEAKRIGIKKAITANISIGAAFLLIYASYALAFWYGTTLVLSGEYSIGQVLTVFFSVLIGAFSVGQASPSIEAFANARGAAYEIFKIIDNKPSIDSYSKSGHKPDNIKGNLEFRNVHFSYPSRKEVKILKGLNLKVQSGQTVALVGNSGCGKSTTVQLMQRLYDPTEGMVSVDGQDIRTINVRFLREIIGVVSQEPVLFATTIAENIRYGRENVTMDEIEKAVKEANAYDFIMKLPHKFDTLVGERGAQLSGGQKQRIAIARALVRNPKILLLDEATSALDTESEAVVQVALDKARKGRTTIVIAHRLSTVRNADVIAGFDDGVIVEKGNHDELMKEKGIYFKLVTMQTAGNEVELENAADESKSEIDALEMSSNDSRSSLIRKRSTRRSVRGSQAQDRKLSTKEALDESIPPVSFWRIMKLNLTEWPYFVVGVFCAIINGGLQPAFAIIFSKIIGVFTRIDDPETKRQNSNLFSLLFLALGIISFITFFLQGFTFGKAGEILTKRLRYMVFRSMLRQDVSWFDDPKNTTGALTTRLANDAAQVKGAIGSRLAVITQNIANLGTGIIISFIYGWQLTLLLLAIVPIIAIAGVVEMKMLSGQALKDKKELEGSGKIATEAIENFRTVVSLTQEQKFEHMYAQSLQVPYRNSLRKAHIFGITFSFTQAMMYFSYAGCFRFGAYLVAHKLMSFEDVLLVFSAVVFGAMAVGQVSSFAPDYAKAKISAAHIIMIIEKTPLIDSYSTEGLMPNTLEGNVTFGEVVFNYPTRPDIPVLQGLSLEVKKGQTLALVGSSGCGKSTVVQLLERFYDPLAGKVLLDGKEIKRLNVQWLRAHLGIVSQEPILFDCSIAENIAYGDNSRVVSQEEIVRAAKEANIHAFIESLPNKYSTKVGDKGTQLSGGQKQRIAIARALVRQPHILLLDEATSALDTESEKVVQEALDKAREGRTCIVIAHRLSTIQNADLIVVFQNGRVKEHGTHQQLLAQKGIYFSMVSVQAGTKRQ
Chain of MRP2 (ABCC2) (Q92887 whole entry): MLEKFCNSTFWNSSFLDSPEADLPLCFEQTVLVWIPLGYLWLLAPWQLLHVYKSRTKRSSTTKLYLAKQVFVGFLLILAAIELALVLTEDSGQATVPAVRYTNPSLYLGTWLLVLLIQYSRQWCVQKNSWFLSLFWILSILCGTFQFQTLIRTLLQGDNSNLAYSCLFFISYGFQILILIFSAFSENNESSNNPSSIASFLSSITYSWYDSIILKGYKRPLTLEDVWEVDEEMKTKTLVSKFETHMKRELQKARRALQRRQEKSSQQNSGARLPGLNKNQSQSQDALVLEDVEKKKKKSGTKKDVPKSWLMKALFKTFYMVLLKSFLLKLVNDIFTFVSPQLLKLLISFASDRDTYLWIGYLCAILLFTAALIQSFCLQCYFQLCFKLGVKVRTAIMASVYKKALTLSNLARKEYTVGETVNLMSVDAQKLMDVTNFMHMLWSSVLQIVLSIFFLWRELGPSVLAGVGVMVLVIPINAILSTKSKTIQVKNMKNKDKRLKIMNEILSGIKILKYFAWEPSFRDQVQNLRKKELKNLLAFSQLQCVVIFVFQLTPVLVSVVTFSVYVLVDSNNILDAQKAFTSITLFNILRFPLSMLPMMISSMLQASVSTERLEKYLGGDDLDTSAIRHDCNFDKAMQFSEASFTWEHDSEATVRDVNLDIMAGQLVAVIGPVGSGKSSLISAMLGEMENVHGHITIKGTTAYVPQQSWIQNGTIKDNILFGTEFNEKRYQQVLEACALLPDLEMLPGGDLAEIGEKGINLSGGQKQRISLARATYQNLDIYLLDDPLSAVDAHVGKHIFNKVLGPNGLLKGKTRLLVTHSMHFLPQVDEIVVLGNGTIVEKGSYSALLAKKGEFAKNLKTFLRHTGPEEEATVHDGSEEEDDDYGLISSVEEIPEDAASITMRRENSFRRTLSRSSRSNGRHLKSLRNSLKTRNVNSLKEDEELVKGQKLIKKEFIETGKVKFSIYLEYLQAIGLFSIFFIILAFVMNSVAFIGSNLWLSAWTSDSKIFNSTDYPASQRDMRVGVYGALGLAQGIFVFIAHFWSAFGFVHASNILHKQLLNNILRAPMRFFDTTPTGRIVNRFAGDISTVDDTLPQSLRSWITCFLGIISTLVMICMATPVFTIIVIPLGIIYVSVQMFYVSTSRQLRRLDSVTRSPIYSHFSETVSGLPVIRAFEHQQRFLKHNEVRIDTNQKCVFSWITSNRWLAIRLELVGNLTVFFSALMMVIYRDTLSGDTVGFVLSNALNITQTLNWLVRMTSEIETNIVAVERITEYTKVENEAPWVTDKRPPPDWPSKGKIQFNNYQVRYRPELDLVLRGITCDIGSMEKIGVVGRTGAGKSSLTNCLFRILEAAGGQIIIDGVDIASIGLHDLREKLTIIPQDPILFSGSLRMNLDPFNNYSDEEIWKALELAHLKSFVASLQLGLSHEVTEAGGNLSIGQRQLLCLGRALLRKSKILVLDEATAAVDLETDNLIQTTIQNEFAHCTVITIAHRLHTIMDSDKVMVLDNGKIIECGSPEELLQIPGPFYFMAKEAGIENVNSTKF

inhibition at 4 µM [2]: > 30%
SMILES: O=C1c2ccccc2-n2c1nc1ccccc1c2=O [TRYPTANTHRIN]
inhibition [1]: > 30%

SMILES: CN[C@@H]1C[C@H]2O[C@@](C)([C@@H]1OC)n1c3ccccc3c3c4c(c5c6ccccc6n2c5c31)C(=O)NC4 [STAUROSPORINE]
Activity [3]: 50%

SMILES: Nc1ncnc2c1ncn2[C@@H]1O[C@H](COC(=O)c2ccc(S(=O)(=O)F)cc2)[C@@H](O)[C@H]1O
pIC50 [4]: 6.68
pIC50 [5]: 6.77
pIC50 [6]: 6.17

pIC50 [7]: 4.90
SMILES: COC(=O)[C@H]1[C@H]2C[C@@H]3c4[nH]c5cc(OC)ccc5c4CCN3C[C@H]2C[C@@H](OC(=O)c2cc(OC)c(OC)c(OC)c2)[C@@H]1OC [RESERPINE]

pIC50 [9]: 5.70 to 6.30
pIC50 [10]: 6.10
pIC50 [11]: 5.70 to 6.30
pIC50 [12]: 5.70 to 6.30
SMILES: COc1ccc2c3c1O[C@@H]1C[C@H](OC(=O)CCCCCCCCC(=O)O[C@H]4C=C[C@@]56CN(C)CCc7ccc(OC)c(c75)O[C@H]6C4)C=C[C@]31CN(C)CC2
pIC50 [8]: 6.30

half-life [14]: 52 h
Cmax [15]: 607 ng/mL
AUC [17]: 6116 µg/h/L
AUC [18]: 64 µg/h/L
AUC [19]: 21827 µg/h/L
half-life [20]: 0.5 h
Tmax [21]: 4.67 h
half-life [22]: 8.67 h
half-life [23]: 18.2 h
Tmax [24]: 3.67 h
Cmax [25]: 835 ng/mL
SMILES: COc1ccc2cc1Oc1ccc(cc1)C[C@@H]1c3cc(c(OC)cc3CCN1C)Oc1c(OC)c(OC)c(Br)c3c1[C@H](C2)N(C)CC3
inhibition in vivo at 10 mg/kg [13]: 39%
inhibition in vivo at 10 mg/kg [16]: 48%
pIC50 [26]: 5.70

SMILES: COc1ccc2cc1Oc1ccc(cc1)C[C@@H]1c3cc(c(OC)cc3CCN1C)Oc1c(OC)c(OC)cc3c1[C@H](C2)N(C)CC3 [ISOTETRANDRINE]
fold change (FC) [27]: 20
half-life [28]: 20 h
half-life [29]: 120 to 168 h
inhibition in vivo at 30 mg/kg [30]: 58%
inhibition in vivo at 30 mg/kg [31]: 62%
inhibition in vivo at 35 mg/kg [32]: 76%
fold change (FC) [33]: 20
Tmax [34]: 6 h
Cmax [35]: 237 ng/mL
AUC [36]: 6279 µg/h/L

SMILES: COc1cc(/C=C/C(=O)OC2C(O)C3CC(OC(=O)c4cc(OC)c(OC)c(OC)c4)CC2N3C)cc(OC)c1OC (stereo not drawn)
pKi [37]: 5.14
inhibition in vivo at 136 µmol/kg [38]: ≤ 77.7%
inhibition in vivo at 130 µmol/kg [39]: ≤ 75%
inhibition in vivo at 130 µmol/kg [40]: ≤ 75%

SMILES: C=C[C@]1(C)C[C@@H](OC(=O)CSCCN(CC)CC)[C@]2(C)[C@H](C)CC[C@]3(CCC(=O)[C@H]32)[C@@H](C)[C@@H]1O [TIAMULIN]
pIC50 [41]: 6.27
pIC50 [42]: 5.21
survival at 1.6 mg/kg [43]: 29%
